Starred links: 1 amine or outer side, 2 acyl side, 3 side chain; linkers in the order of their positions; H or OH if unused. Positions of bridges follow the written chain, without caps; N, C: chain ends. Residues, ends and D or L forms follow the SMILES beside them. *: point of attachment. C18 diacid = O=C(O)CCCCCCCCCCCCCCCCC(=O)*; γGlu = O=C(O)[C@H](CCC(=O)[*:2])N[*:1]; AEEA = NCCOCCOCC(=O)O
How the values were obtained:
[1] = Local tolerance of CNP compounds in rats (s.c. injection, histopathology); assay type: in vivo, Sprague Dawley rat; settings: for assessment for human subcutaneous administration: based on rat local tolerance
How it was run: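 Male Sprague Dawley rats (10-11 weeks) received two s.c. injections of 250 or 350 uL compound (1000 nmol/mL formulation) in neck or flank, 120 h before necropsy; vehicle 5 mM sodium acetate/250 mM glycerol pH 4.0 or 8 mM sodium phosphate/250 mM glycerol pH 7.4. Injection sites were scored macroscopically, H&E-stained and graded on a 5-level scale (Min to Sev).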

[2] = PK after i.v. and s.c. administration to Göttingen minipig; settings: female, Göttingen minipig and domestic LYD pig, minipig, in vivo, sc
How it was run: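 Female Göttingen minipigs (6-12 months, ~22 kg) and domestic LYD pigs (4-5 months, ~80 kg) given CNP compounds i.v. (30-60 or 15-43 nmol/kg) or s.c. neck (55-62 or 20-30 nmol/kg) via catheter/pen. EDTA plasma sampled up to 14 days, CNP and cGMP by LC-MS; non-compartmental PK, F from dose-normalized AUC s.c./i.v.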

[3] = tested on: mouse metatarsal bones; experiment: Mouse metatarsal bone dissection and culture (ex vivo bone growth); assay type: cell-based, mouse (NMRI); settings: 100 nM, n=8
Method: The purpose of this study was to evaluate bone growth after administration of CNP compounds in an ex vivo mouse model.
Procedure: One-day old mouse pups (NMRI, Javier Labs France) were euthanised prior to dissection. All applicable international and internal Novo Nordisk guidelines for care and use of animals were followed. The three middle metatarsal bones were dissected out from each hind paw. The dissected bones were placed in 24-well cell culture plates and cultured in 400 μl a-Minimum Essential Media supplemented with 0.2% BSA, 1% Pen/Strep at 37° C. and 5% CO2. The bones from all animals were randomised into a control group and six CNP compound-treated groups (100 nM; n=8). The medium was changed every 2-3 days. All compounds were formulated according to the principles described in General Methods of Preparation—Method G. Compounds 9435 and 9483 were formulated in A) 5 mM sodium acetate, 250 mM glycerol, pH 4.0 while compounds 9384, 9407, 9480 and 9482 were formulated in B) 8 mM sodium phosphate, 250 mM glycerol, pH 7.4.
Digital pictures were captured on day 0, 4, 7, 11, and 14 using a digital camera attached to a Nikon microscope. The length of each metatarsal bone was measured using ImageJ software and increase in bone length was expressed as percentage change from the length measured at the day of dissection (Mean (SD)).
In Table 27, metatarsal bones were isolated from mice and cultured for up to 14 days. Length was measured every 3-4 days throughout the study and expressed as percentage change from day 0 (Mean (SD)). Statistically significant differences are indicated compared to control group (two-way ANOVA).

[4] = 5 days after subcutaneous injections in the rat

SMILES	local subcutaneous necrosis ([1]; rat, in vivo, sc)	bioavailability [2] [%]	local subcutaneous necrosis [1, 4]	assessment for human subcutaneous administration [1]	Increase in bone length, mean (%) change from day 0 ([3]; day 4 in culture) [%]	Increase in bone length, mean (%) change from day 0 ([3]; day 7 in culture) [%]	Increase in bone length, mean (%) change from day 0 ([3]; day 11 in culture) [%]	Increase in bone length, mean (%) change from day 0 ([3]; day 14 in culture) [%]
CC[C@H](C)[C@@H]1NC(=O)[C@H](CCCNC(=N)N)NC(=O)[C@H](CCC(=O)O)NC(=O)[C@H](CC(C)C)NC(=O)[C@H](CCCCN)NC(=O)[C@H](CC(C)C)NC(=O)CNC(=O)[C@H](Cc2ccccc2)NC(=O)[C@@H](NC(=O)CNC(=O)[C@H](CCCCN)NC(=O)[C@H](CO)NC(=O)[C@H](CC(C)C)NC(=O)CNC(=O)[C@H](CCCCN)NC(=O)[C@H](CCCCN)NC(=O)[C@H](CCC(N)=O)NC(=O)[C@H](C)NC(=O)CNC(=O)[C@H](CCCCN)NC(=O)[C@H](Cc2ccc(O)cc2)NC(=O)[C@H](CCCCN)NC(=O)[C@H](CCCNC(=N)N)NC(=O)[C@H](C)NC(=O)COCCOCCNC(=O)COCCOCCNC(=O)CC[C@H](NC(=O)CCCCCCCCCCCCCCCCC(=O)O)C(=O)O)CSSC[C@@H](C(=O)O)NC(=O)CNC(=O)[C@H](CC(C)C)NC(=O)CNC(=O)[C@H](CO)NC(=O)[C@H](CC(C)C)NC(=O)[C@H](CO)NC(=O)CNC1=O [compound 0776] ({C18 diacid-γGlu-AEEA-AEEA}-ARKYKGAQKKGLSKGCFGLKLERIGSLSGLGC-OH; disulfide 16-32)	moderate to marked	7 to 13						
CC[C@H](C)[C@@H]1NC(=O)[C@H](CCCNC(=N)N)NC(=O)[C@H](CC(=O)O)NC(=O)[C@H](CC(C)C)NC(=O)[C@@H]2CCCN2C(=O)[C@H](CC(C)C)NC(=O)CNC(=O)[C@H](Cc2ccccc2)NC(=O)[C@@H](NC(=O)CNC(=O)[C@H](CCC(N)=O)NC(=O)[C@H](CO)NC(=O)[C@H](CO)NC(=O)CNC(=O)[C@H](CCCCN)NC(=O)[C@H](CCCCN)NC(=O)[C@H](CCC(N)=O)NC(=O)[C@H](C)NC(=O)CNC(=O)[C@@H]2CCCN2C(=O)[C@H](C)NC(=O)[C@H](CCC(N)=O)NC(=O)CNC(=O)COCCOCCNC(=O)COCCOCCNC(=O)CC[C@H](NC(=O)CCCCCCCCCCCCCCCCC(=O)O)C(=O)O)CSSC[C@@H](C(=O)O)NC(=O)CNC(=O)[C@H](CC(C)C)NC(=O)CNC(=O)[C@H](CO)NC(=O)[C@H](CC(C)C)NC(=O)[C@H](CO)NC(=O)CNC1=O [compound 9384] ({C18 diacid-γGlu-AEEA-AEEA}-GQAPGAQKKGSSQGCFGLPLDRIGSLSGLGC-OH; disulfide 15-31; C-terminus assumed)			no or mild	acceptable	33.6	42.6	50.1	54.4
CC[C@H](C)[C@@H]1NC(=O)[C@H](CCCNC(=N)N)NC(=O)[C@H](CC(=O)O)NC(=O)[C@H](CC(C)C)NC(=O)[C@@H]2CCCN2C(=O)[C@H](CC(C)C)NC(=O)CNC(=O)[C@H](Cc2ccccc2)NC(=O)[C@@H](NC(=O)CNC(=O)[C@H](CCC(N)=O)NC(=O)[C@H](CO)NC(=O)[C@H](CC(C)C)NC(=O)CNC(=O)[C@H](CCCCN)NC(=O)[C@H](CCCCN)NC(=O)[C@H](CCC(N)=O)NC(=O)[C@H](C)NC(=O)CNC(=O)[C@H](CCCCN)NC(=O)[C@H](Cc2ccc(O)cc2)NC(=O)[C@H](CCCCN)NC(=O)[C@H](CCCNC(=N)N)NC(=O)[C@H](C)NC(=O)COCCOCCNC(=O)COCCOCCNC(=O)COCCOCCNC(=O)COCCOCCNC(=O)CC[C@H](NC(=O)CC[C@H](NC(=O)CC[C@H](NC(=O)CC[C@H](NC(=O)CC[C@H](NC(=O)CCCCCCCCCCCCCCCCC(=O)O)C(=O)O)C(=O)O)C(=O)O)C(=O)O)C(=O)O)CSSC[C@@H](C(=O)O)NC(=O)CNC(=O)[C@H](CC(C)C)NC(=O)CNC(=O)[C@H](CO)NC(=O)[C@H](CC(C)C)NC(=O)[C@H](CO)NC(=O)CNC1=O [compound 9407] ({C18 diacid-γGlu-γGlu-γGlu-γGlu-γGlu-AEEA-AEEA-AEEA-AEEA}-ARKYKGAQKKGLSQGCFGLPLDRIGSLSGLGC-OH; disulfide 16-32)			no or mild	acceptable	35.1	45.4	53.2	55.8

Source: patent US20240209028A1, “CNP COMPOUNDS” (priority 2022, published 2024)
